This assay has as its system primary mouse OPCs. The assay can be described thus: agarose drop migration assay. It is filed as cell-based. The settings on record: any of the concentrations tested (0.3 nM to 3000 nM); after 5 days. The method, then:
The effects of ponesimod, a selective S1P1 receptor agonist, and A971432, a selective S1P5 receptor agonist, on oligodendrocyte precursor cell (OPC) migration and differentiation were evaluated. Nine concentrations were tested (logarithmic dilutions ranging from 0.3 nM to 3000 nM, n=6 per concentration). Fingolimod phosphate (P-FTY720, 3000 nM, n=6) was included as a positive control, 0.1% DMSO was included (min.one/plate) as a negative control. Primary mouse OPCs were harvested on postnatal day 0 or 1 and mixed glia cultures were maintained for 14 days. Primary OPCs were then purified using the shake-off method, and used for either a migration assay, or a differentiation assay, as detailed below. To harvest primary mouse OPCs, cortices are isolated from mouse pups on postnatal day 0 or 1 and placed in ice-cold Dulbecco's Modified Eagle Medium (DMEM) (Sigma Aldrich, Overijse, BE). The cortices are homogenized and centrifuged for 5 minutes at 300 G. The supernatant is removed, and a papain solution is added for 30 minutes (125 uL DMEM solution per brain containing 20 units/ml papain and 40 μg/ml DNase, at 37 degrees). Digestion is inactivated by adding 9 ml cold DMEM. The solution is then centrifuged for 5 minutes at […]. The supernatant is carefully removed, and the pellet is resuspended in 2-5 ml culture medium (DMEM with 10% fetal calf serum (Biowest, Nuaillé, FR) and 1% pen/strep (Sigma Aldrich, Overijse, BE)). […] Cell suspension is divided over PLL (Sigma Aldrich, Overijse, BE)-coated flasks (2 brains per flask) and DMEM is added to a final volume of 10 ml. DMEM is replaced on day 4, 7, and 11. On day 7 and 11, insulin (Sigma Aldrich, Overijse, BE) is added to the medium (5μg/ml). On day 14, OPCs are separated from astrocytes by the shake-off method: flasks are placed on a shaker for 45 minutes at 75 rpm (37 degrees). […] The extent of cell migration is then measured after 5 days using Incucyte imaging analysis and fluorescent endpoint staining. For each well, the 15-20 cells that migrated the furthest away from the agarose drop are measured and averaged. […]

Data on 2 molecules can be found in patent publication US20240261267A1, “METHODS FOR TREATING MULTIPLE SCLEROSIS” (Vanda Pharmaceuticals Inc., priority 2021, published 2024).

On to `O=C(O)C1CN(Cc2ccc(OCc3ccc(Cl)c(Cl)c3)cc2)C1` [A97], for which the migration distance entry is listed as “did not affect migration distance”.

As for `CCC/N=C1\S/C(=C\c2ccc(OC[C@H](O)CO)c(Cl)c2)C(=O)N1c1ccccc1C` [ponesimod, (R)-5-[3-chloro-4-(2,3-dihydroxy-propoxy)-benz[Z]ylidene]-2-([Z]-propylimino)-3-o-tolyl-thiazolidin-4-one], the migration distance result is on record as “did not affect migration distance”.
